In US7053122B2, “Therapeutic use of aryl amino acid derivatives” (Pfizer Inc, priority 2002, dated 2006):
Blank lines part the entries; values can stand above or below the compound they belong to.

Tested on: α2δ subunit derived from porcine brain tissue
Assay: radioligand binding assay using [3H]gabapentin and the α2δ subunit
Settings: [3H]gabapentin radioligand
Description: The biological activity of the compounds of the invention may be measured in a radioligand binding assay using [^3H]gabapentin and the α2δ subunit derived from porcine brain tissue (Gee N. S., Brown J. P., Dissanayake V. U. K., Offord J., Thurlow R., Woodruff G. N., J. Biol. Chem., 1996; 271:5776–5879). Results may be expressed in terms of μM or nM α2δ binding affinity.

Compound: CC(N)c1ccccc1C(=O)O.Cl (centres unmarked) [Example 5, 2-(1-Amino-ethyl)-benzoic acid hydrochlorid salt]
α2δ binding affinity: 270 nM

Compound: Cl.NCc1ccc(Cl)cc1-c1noc(=O)[nH]1 [Example 7, 3-(2-Aminomethyl-5-chloro-phenyl)-4-H-[1,2,4]loxadiazol-5-one hydrochloride salt]
α2δ binding affinity: 8000 nM

Continued, values first:

α2δ binding affinity: 100 nM
Compound: Cl.NCc1ccc(Cl)cc1C(=O)O [Example 1, 2-Aminomethyl-5-chloro-benzoic acid hydrochloride salt]

α2δ binding affinity: 435 nM
Compound: Cl.NCc1cc(Cl)c(Cl)cc1C(=O)O [Example 2, 2-Aminomethyl-4,5-dichloro-benzoic acid hydrochloride salt]

α2δ binding affinity: 383 nM
Compound: Cl.NCc1cccc(Cl)c1C(=O)O [Example 4, 2-Aminomethyl-6-chloro-benzoic acid hydrochloride salt]
